Measured values from patent publication US7241787B2, “Substituted N-cycloexylimidazolinones, process for their preparation and their use as medicaments” (Sanofi-Aventis Deutschland GmbH, priority 2004, dated 2007).

Target: T1, human MCH receptor (Homo sapiens, UniProt Q99705)
T1 construct: expressed in transfected cells
Test: Functional measurements of cellular calcium flux (FLIPR) to determine IC50 values
Type: cell-based
Conditions: recombinant HEK293 cell line expressing the human MCH receptor, calcium flux after addition of agonist (MCH) in presence of ligand
Text: Functional measurements to determine IC50 values
Cloning of the cDNA for the human MCH receptor, preparation of a recombinant HEK293 cell line which expresses the human MCH receptor, and functional measurements with the recombinant cell line took place in analogy to the description by Audinot et al. (J. Biol. Chem. 276, 13554–13562, 2001). A difference from the reference was, however, the use of the plasmid pEAK8 from EDGE Biosystems (USA) for the construction of the expression vector. The host used for the transfection was a transformed HEK cell line named “PEAK Stable Cells” (likewise from EDGE Biosystems). Functional measurements of the cellular calcium flux after addition of agonist (MCH) in the presence of ligand of the invention took place with the aid of the FLIPR apparatus from Molecular Devices (USA), using protocols of the apparatus manufacturer.

T1 sequence (Q99705 whole entry): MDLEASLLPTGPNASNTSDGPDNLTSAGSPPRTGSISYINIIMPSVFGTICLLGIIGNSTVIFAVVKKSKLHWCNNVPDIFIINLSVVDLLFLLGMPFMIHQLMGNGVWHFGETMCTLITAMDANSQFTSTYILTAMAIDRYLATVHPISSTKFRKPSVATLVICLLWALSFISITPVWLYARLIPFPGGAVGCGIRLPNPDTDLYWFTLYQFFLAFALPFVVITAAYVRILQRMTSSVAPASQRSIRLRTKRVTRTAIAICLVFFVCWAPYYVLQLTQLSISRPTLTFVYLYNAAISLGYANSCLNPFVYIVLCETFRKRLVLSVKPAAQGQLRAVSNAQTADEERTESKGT

IC50 | Compound
0.01 to 2 µM | O=c1n(-c2ccc(Oc3ccccc3)cc2)ccn1C1CCC(N2CCNCC2)CC1 (stereo not shown) [Example 5]
0.01 to 2 µM | O=c1n(-c2ccc(Oc3ccccc3)cc2)ccn1C1CCC(N2CCCNCC2)CC1 (stereo not shown) [Example 8]

More lines, now with the values behind:

Compound | IC50
O=c1n(-c2ccc(Oc3ccccc3)cc2)ccn1C1CCC(NC2CN3CCC2CC3)CC1 (stereo not shown) [Example 6] | 2 to 10 µM
CC(=O)N[C@@H]1CCN(C2CCC(n3ccn(-c4ccc(Oc5ccccc5)cc4)c3=O)CC2)C1 (stereo partly drawn) [Example 1, (R)-N-(1-{4-[2-oxo-3-(4-phenoxyphenyl)-2,3-dihydroimidazol-1-yl]cyclohexyl}pyrrolidin-3-yl)acetamide] | 0.01 to 2 µM
CN1CCN(C2CCC(n3ccn(-c4ccc(Oc5ccccc5)cc4)c3=O)CC2)CC1 (stereo not shown) [Example 9] | 2 to 10 µM
CN(C)CCO[C@H]1CC[C@H](n2ccn(-c3ccc(OC4CCCC4)cc3)c2=O)CC1 [Example 2, Trans-1-(4-cyclopentyloxy-phenyl)-3-[4-(2-dimethylaminoethoxy)cyclohexyl]-1,3-dihydroimidazol-2-one] | 0.01 to 2 µM
O=c1n(-c2ccc(Oc3ccccc3)cc2)ccn1C1CCC(N2CCN(CCO)CC2)CC1 (stereo not shown) [Example 3] | 2 to 10 µM
